According to EPA's ToxValDB 9.5:
Counter-ions that a name gives are not always drawn.

Test system: Rattus norvegicus
Conditions: oral
[1] = short-term, duration: 28 days, gavage, F, Sprague-Dawley, Deaths + Clinical Observation: Locomotor activity decrease, Salivation + Body Weight Changes: decrease, Gain decrease + Food Consumption: …
[2] = short-term, duration: 28 days, gavage, M, Sprague-Dawley, Deaths + Clinical Observation: Locomotor activity decrease, Salivation + Body Weight Changes: decrease, Gain decrease + Food Consumption: …
[3] = subchronic, gavage, M, Sprague-Dawley, Deaths + Clinical Observation: Diarrhea SalivationSoft feces Decreased locomotor activity BradypneaIncomplete eyelid opening AnorexiaSoiled …
[4] = subchronic, gavage, Sprague-Dawley
[5] = short-term, duration: 28 days, gavage, F, Sprague-Dawley, Clinical Observation: Salivation + Hematology: Hgb decrease, Hct decrease + Blood Chemistry: Bil increase, Bil increase(trend)gamma-GTP …
[6] = short-term, duration: 28 days, gavage, M, Sprague-Dawley, Clinical Observation: Salivation + Hematology: Hgb decrease, Hct decrease + Blood Chemistry: Bil increase, Bil increase(trend)gamma-GTP …

`O=C(O)C(Cl)(Cl)Cl` [Trichloroacetic acid] was tested, and the NOEL (short-term, duration: 28 days, gavage, M/F, Clinical Observation: Salivation Soft feces Locomotor activity decrease + Urinalysis: Ketone body increase + Hematology: WBC increase, Trend…) was 40 mg/kg-day.
`Nc1c(S(=O)(=O)O)cc(Br)c2c1C(=O)c1ccccc1C2=O` was tested, and the NOEL (short-term, duration: 28 days, gavage, M/F, Deaths + Clinical Observation: Polyuria + Body Weight Changes: Body weight gain decrease + Water Consumption: increase + Urinalysis: Urine …) was 50 mg/kg-day.
In the case of `NS(=O)(=O)Cc1noc2ccccc12` [Zonisamide], the NOAEL (short-term, duration: 28 days, gavage, M/F, Sprague-Dawley, Deaths + Clinical Observation: Locomotor activity decrease, Ataxic gait Hypotonia, Abdominal region + Body Weight Changes: Body weight gain …) is reported as 20 mg/kg-day.
`CCCCCCCCCCCCCCCCCCCCCC[N+](C)(C)C.[Cl-]` [Docosyltrimethylammonium chloride] was tested, and the NOEL (subchronic, gavage, M, Sprague-Dawley, Clinical Observation: Salivation Perinasal and perioral smudge Soft stool and diarrhea + Body Weight Changes: decrease, R + Food …) was < 5 mg/kg-day.
For `COC(CCl)OC` [Ethane, 2-chloro-1,1-dimethoxy-], the NOEL (short-term, duration: 28 days, gavage, M/F, Blood Chemistry: GPT increase, ALP increase, T-Bil increase, IP decrease + Organ Weight: Liver increase, Spleen decrease, Kidney increase, …) was 15 mg/kg-day.
For `O=[N+]([O-])c1ccc(Cl)c(Cl)c1` [3,4-Dichloronitrobenzene], the NOEL (subchronic, gavage, M, Sprague-Dawley, Hematology: RBC decrease, Hct decrease, MCV increase, MCH increase, Hgb decrease, MCHC decrease, Ret increase + Blood Chemistry: T-Bil: …) was < 4 mg/kg-day.
For `C=CCOC(=O)c1ccccc1-c1ccccc1C(=O)OCC=C`, the NOEL (short-term, duration: 28 days, gavage, M/F, Clinical Observation: Salivation + Hematology: APTT increase, PT increase + Blood Chemistry: GOT increase, GPT increase, gamma-GTP increase…) was 6 mg/kg-day.
In the case of `[Cl][Sn][Cl]` [Stannous chloride], the NOEL (subchronic, duration: 13 weeks, diet, M/F, Fischer 344, Body Weight Changes: decrease) is reported as 365 mg/kg-day.
In the case of `CCc1ccccc1N` [2-Ethylaniline], the NOEL (subchronic, duration: 42 days, gavage, M, CD(SD), Hematology: RBC decrease, HGB decrease, MCV increase, MCH increase, MCHC decrease, RET increase + Blood Chemistry: Alb increase A/G …) is reported as 3 mg/kg-day.
For `CCCCCCC[CH2][Sn]([Cl])([Cl])[CH2]CCCCCCC` [Dichloro(dioctyl)stannane], the NOAEL (subchronic, duration: 90 days, diet, M/F, Wistar, Body Weight Changes: Weight gain decrease + Food Consumption: decrease + Urinalysis: Crystals increase + Hematology: RBC decrease, HGB …) was > 0.96 mg/kg-day.
`Fc1ccc(Br)cc1F` [4-Bromo-1,2-difluorobenzene] was tested, and the NOEL (short-term, duration: 28 days, gavage, M/F, Deaths + Clinical Observation: Locomotor activity decrease, Salivation Paleness of Auricle + Body Weight Changes: Gain decrease + …) was 20 mg/kg-day.
For `CO[Si](OC)(OC)c1ccccc1` [Trimethoxyphenylsilane], the NOAEL (short-term, duration: 28 days, gavage, M, Han Wistar, Body Weight Changes: decrease + Food Consumption: decrease + Blood Chemistry: BUN increase, BA increase, T-Cho increase + Absolute Organ …) was < 100 mg/kg-day.
Molecule `COc1ccccc1OCCNCC(O)COc1cccc2[nH]c3ccccc3c12` (centres undefined) [Carvedilol] has an NOEL (chronic, duration: 91 days, gavage, M/F, Wistar, Deaths + Clinical Observation: Salivation Lacrimation Ptosis Locomotor activity decrease + Body Weight Changes: Body weight gain decrease + …) of 30 mg/kg-day.
`CC[Si](Cl)(Cl)Cl` [Ethyl silicon trichloride] showed an NOAEL (short-term, duration: 28 days, gavage, M/F, Wistar, Clinical Observation: Staggering gait + Body Weight Changes: decrease + Relative Organ Weight: Liver increase, (Low and middle doses were …) of 250 mg/kg-day.
With `c1ccc(Nc2ccc3ccccc3c2)cc1` [N-Phenyl-2-naphthylamine] the NOEL (subchronic, duration: 13 weeks, diet, M/F, Fischer 344, Deaths + Clinical Observation: Rough coats + Body Weight Changes: decrease + Absolute Organ Weight: Liver increase + Relative Organ Weight…) was 240 mg/kg-day.
`COc1cc(N)ccc1NC(=O)c1ccc(N)cc1` [4-Amino-N-(4-amino-2-methoxyphenyl)benzamide] showed an NOEL (short-term, duration: 28 days, gavage, M/F, Deaths + Clinical Observation: Locomotor activity increase, Tremor (temporary)Loss of righting reflex Motor ataxia Lethargy (severe) + Blood…) of 10 mg/kg-day.
`C=CCCCC=C(C)C` [1,6-Octadiene, 7-methyl-] was tested, and the NOEL (short-term, duration: 28 days, gavage, M/F, Clinical Observation: Salivation + Blood Chemistry: TG increase) was 10 mg/kg-day.
Molecule `CCCCCCCCCCCCC(C(=O)OC)S(=O)(=O)[O-].[Na+]` (centres undefined) [Sodium 1-methoxy-1-oxotetradecane-2-sulfonate] has an NOEL (subchronic, diet, F, Crj: CD (SD), Blood Chemistry: TG decrease + Absolute Organ Weight: Testis increase + Relative Organ Weight: Testis increase) of 249 mg/kg-day, an NOEL (subchronic, diet, M/F, Crj: CD (SD), Blood Chemistry: TG decrease + Absolute Organ Weight: Testis increase + Relative Organ Weight: Testis increase) of 0.3% and an NOEL (subchronic, diet, M, Crj: CD (SD), Blood Chemistry: TG decrease + Absolute Organ Weight: Testis increase + Relative Organ Weight: Testis increase) of 175 mg/kg-day.
`NS(=O)(=O)c1ccccc1` [Benzenesulfonamide] showed an LOAEL [1] of 30 mg/kg-day, an LOEL [1] of 30 mg/kg-day and an NOAEL [1] of 6 mg/kg-day. It also gave an NOEL [1] of 6 mg/kg-day, an LOAEL [2] of 30 mg/kg-day and an LOEL [2] of 30 mg/kg-day. For the same molecule, the NOAEL [2] was 6 mg/kg-day and the NOEL [2] was 6 mg/kg-day.
Work on `COc1cc(S(=O)(=O)CCOS(=O)(=O)O)c(C)cc1N` yielded an NOEL (short-term, duration: 28 days, gavage, M, Absolute Organ Weight: Liver increase + Histopathology: Kidney-Eosinophilic droplet, tubular epithelium) of 30 mg/kg-day.
Work on `N#CC(Cl)(Cl)Cl` [Trichloroacetonitrile] yielded an NOEL (short-term, duration: 28 days, gavage, M/F, Clinical Observation: Salivation Locomotor activity decrease, Bradypnea Ptosis Flushing of auricle Staggering gait + Body Weight Changes: …) of 40 mg/kg-day.
`CCc1cc(Cc2cc(CC)cc(C(C)(C)C)c2O)c(O)c(C(C)(C)C)c1` [2,2'-Methylenebis(ethyl-6-tert-butylphenol)] was tested, and the NOAEL [3] was 30 mg/kg-day and the NOEL [3] was < 30 mg/kg-day.
Molecule `ClCc1ccc(-c2ccc(CCl)cc2)cc1` [4,4'-Bis(chloromethyl)-1,1'-biphenyl] has an NOEL [4] of 1000 mg/kg-day.
`CC(=O)O.O=C(NCC1CCCCN1)c1cc(OCC(F)(F)F)ccc1OCC(F)(F)F` (centres undefined) [Flecainide acetate] gave an NOAEL (chronic, duration: 91 days, gavage, F, Sprague-Dawley, Deaths + Clinical Observation: Patchy hair loss Salivation + Water Consumption: increase + Urinalysis: Volume increase, Protein decrease + …) of 20 mg/kg-day and an NOAEL (chronic, duration: 91 days, gavage, M, Sprague-Dawley, Deaths + Clinical Observation: Patchy hair loss Salivation + Water Consumption: increase + Urinalysis: Volume increase, Protein decrease + …) of 10 mg/kg-day.
For `CCCCCOC(=O)c1c(Cl)c(Cl)cc(Cl)c1OC(=O)C(=O)Oc1c(Cl)cc(Cl)c(Cl)c1C(=O)OCCCCC` [Bis(2,4,5-trichloro-6-carbopentoxyphenyl) oxalate], the NOEL (short-term, duration: 28 days, gavage, M/F, Deaths + Clinical Observation: Salivation + Hematology: PT increase, APTT increase + Blood Chemistry: TP increase, ALB increase, TG …) was < 8 mg/kg-day.
In the case of `Nc1ccccc1Cl` [2-Chloroaniline], the NOEL (subchronic, gavage, M/F, Fischer 344, Deaths + Clinical Observation: Tremors Wasting Bluish discoloration of genital and footpad regions + Body Weight Changes: decrease + …) is reported as < 10 mg/kg-day.
`C=CS(=O)(=O)CCNC(=O)c1cccc(Nc2nc(F)nc(Nc3cc(S(=O)(=O)[O-])cc4cc(S(=O)(=O)[O-])c(N=Nc5ccc6c(S(=O)(=O)[O-])cccc6c5S(=O)(=O)[O-])c(O)c34)n2)c1.[Na+].[Na+].[Na+].[Na+]` was tested, and the NOEL (short-term, duration: 28 days, gavage, M/F, Urinalysis: Occult blood increase, Bil increase + Hematology: RET increase, WBC increase, LYMPH increase + Blood Chemistry: BUN increase, T-…) was 50 mg/kg-day.
`CC(C)CC(C)(C#N)N=NC(C)(C#N)CC(C)C` (centres undefined) [2,2'-Azobis[2,4-dimethylvaleronitrile]] was tested, and the NOEL (subchronic, gavage, M, Sprague-Dawley, Clinical Observation: Salivation + Blood Chemistry: gamma- GTP increase, TG decrease + Absolute Organ Weight: Liver increase, R + Relative …) was 10 mg/kg-day.
`O=C(CO)[C@@H](O)[C@H](O)[C@H](O)CO[C@H]1O[C@H](CO)[C@@H](O)[C@H](O)[C@H]1O` [6-O-Hexopyranosylhex-2-ulofuranose] gave an NOEL (subchronic, duration: 13 weeks, diet, Wistar) of 10%.
Molecule `CC(C)(C)c1cc(C(=O)O)c(O)c(C(C)(C)C)c1` [Benzoic acid, 3,5-bis(1,1-dimethylethyl)-2-hydroxy-] has an NOEL (subchronic, gavage, M, Sprague-Dawley, Blood Chemistry: ALT(GPT) increase, TG increase + Absolute Organ Weight: Liver increase + Relative Organ Weight: Liver increase) of 20 mg/kg-day.
Molecule `C(COCC1CO1)OCC1CO1` (centres undefined) [Ethylene glycol diglycidyl ether] has an NOEL (subchronic, duration: 42 days, gavage, M, CD(SD), Clinical Observation: Salivation + Body Weight Changes: decrease + Food Consumption: decrease + Blood Chemistry: TG decrease + …) of 12.5 mg/kg-day.
`Oc1ccc(Cl)cc1Cc1ccccc1` [Clorophene] was tested, and the NOEL (subchronic, duration: 13 weeks, gavage, M/F, Fischer 344, Deaths + Clinical Observation: Red-yellow staining of urogenital region hair coat Alopecia of head Brown discoloration of hair coat around …) was < 30 mg/kg-day.
`O=C(O)[C@H]1CCCC[C@H]1C(=O)O` [cis-1,2-Cyclohexanedicarboxylic acid] gave an NOEL (subchronic, gavage, M, Sprague-Dawley, Deaths + Clinical Observation: Dead (4/12)Soiled perigenitalia of urine + Hematology: WBC increase, Neutrophils(%) increase, Lymphocytes(%) …) of 300 mg/kg-day.
With `Cc1[nH]n(-c2ccccc2)c(=O)c1N=Nc1ccc(-c2ccc(N=Nc3c(C)[nH]n(-c4ccccc4)c3=O)c(Cl)c2)cc1Cl` [C.I. Pigment Orange 13] the NOEL [4] was 1000 mg/kg-day.
In the case of `CCC1CCCCC1` [Ethylcyclohexane], the LOEL [5] is reported as 200 mg/kg-day, the NOEL [5] is reported as 40 mg/kg-day and the LOEL [6] is reported as 200 mg/kg-day. For the same molecule, the NOEL [6] was 40 mg/kg-day.
Molecule `CCCCCCCCCCC=O` [Undecanal] has an NOAEL (subchronic, duration: 42 days, gavage, M, CD(SD), Clinical Observation: Salivation (transient)) of 1000 mg/kg-day.
With `C[Si](C)(C)O` [Trimethylsilanol] the NOAEL (short-term, duration: 28 days, gavage, M/F, Wistar, Clinical Observation: Staggering gait + Body Weight Changes: Body weight gain decrease + Relative Organ Weight: Liver increase + …) was 250 mg/kg-day.
`COC(=O)CCCC(=O)OC` [Dimethyl glutarate] gave an NOAEL (subchronic, duration: 42 days, gavage, M, CD(SD), Urinalysis: pH decrease(trend) + Histopathology: Stomach-Hyperplasia, squamous, limiting ledge) of 300 mg/kg-day.
`OCC#CCO` [2-Butyne-1,4-diol] showed an NOEL (short-term, duration: 28 days, gavage, M/F, Wistar, Deaths + Body Weight Changes: decrease + Food Consumption: decrease + Hematology: RET increase, WBC increase, Neut increase, Lymph increase…) of 1 mg/kg-day.
For `NS(=O)(=O)c1cc(C(=O)O)c(NCc2ccco2)cc1Cl` [Furosemide], the NOEL (subchronic, duration: 13 weeks, diet, M/F, Fischer 344, Deaths + Clinical Observation: Diuresis Rough fur + Body Weight Changes: decrease + Food Consumption: decrease + Relative Organ Weight: …) was < 60 mg/kg-day.
